Measured values reported in patent publication US8501238B2, “Anti-infective agents and uses thereof” (priority 2007, dated 2013).

Assays:
[1] = test system: genotype 1a-H77 subgenomic replicon cell line; test: microbe, parasite or virus in culture; type: cell-based, HCV; settings: Hepatitis C virus, 72 h, read-out: EC50 1a
[2] = biological target: T1, HCV polymerase 1A (Δ21 NS5B) (Hepatitis C virus genotype 1a, UniProt P27958); test: HCV Polymerase Inhibition Assay (1a); type: biochemical
T1 construct: 20 to 50nM Δ21 NS5B
T1 sequence (P27958 2421-2990, stated change not applied): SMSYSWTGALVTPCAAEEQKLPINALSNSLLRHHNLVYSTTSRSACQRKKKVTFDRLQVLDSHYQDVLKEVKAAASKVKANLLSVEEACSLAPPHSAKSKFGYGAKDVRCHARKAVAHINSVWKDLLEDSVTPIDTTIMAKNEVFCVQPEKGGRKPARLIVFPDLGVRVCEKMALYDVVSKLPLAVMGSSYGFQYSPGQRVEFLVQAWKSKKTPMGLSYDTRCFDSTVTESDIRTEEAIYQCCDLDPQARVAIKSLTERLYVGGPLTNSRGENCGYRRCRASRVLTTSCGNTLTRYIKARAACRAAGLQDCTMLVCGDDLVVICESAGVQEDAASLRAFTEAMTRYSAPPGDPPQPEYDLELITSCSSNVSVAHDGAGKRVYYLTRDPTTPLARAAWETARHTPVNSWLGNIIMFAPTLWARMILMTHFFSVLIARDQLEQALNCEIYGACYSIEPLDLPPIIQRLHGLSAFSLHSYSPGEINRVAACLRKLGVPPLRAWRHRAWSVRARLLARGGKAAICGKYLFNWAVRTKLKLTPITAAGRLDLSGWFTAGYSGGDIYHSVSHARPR
Experimental: The reaction was initiated by the addition of 20μM CTP, 20μM ATP, 1μM ^3H-UTP (10mCi/umol), 5nM template RNA and 0.1 U/μl RNase inhibitor (RNasin, Promega), and allowed to proceed for 2 to 4h at room temperature. Reaction volume was 50μl. The reaction was terminated by the addition of 1 volume of 4mM spermine in 10mM Tris-Cl pH 8.0, 1mM EDTA. After incubation for at least 15 min at room temperature, the precipitated RNA was captured by filtering through a GF/B filter (Millipore) in a 96 well format. The filter plate was washed three times with 200μl each of 2mM spermine, 10mM Tris-Cl pH 8.0, lmM EDTA, and 2 times with ethanol. After air-drying, 30μl of Microscint 20 scintillation cocktail (Packard) was added to each well, and the retained cpm were determined by scintillation counting. […] Retained cpm were plotted vs. inhibitor concentration and fit to equation 1 using non-linear regression (ref. 1) to obtain the IC50 values: Retained cpm=A[sqrt{(IC50+It−Et)^2+4*IC50*Et}−([…])]
Ref. Morrison, J. F. and S. R. Stone. […] Approaches to the study and analysis of the inhibition of enzymes by slow- and tight-binding inhibitors. Comments Mol. Cell. Biophys.
(§1) The sequence of the template RNA used was: 5′-[…]-3′

[3] = biological target: T2, HCV polymerase 1B (Δ21 NS5B) (Hepatitis C virus genotype 1b, UniProt P26663); test: biochemical
T2 construct: 20 to 50nM Δ21 NS5B
T2 sequence (P26663 2420-2989, stated change not applied): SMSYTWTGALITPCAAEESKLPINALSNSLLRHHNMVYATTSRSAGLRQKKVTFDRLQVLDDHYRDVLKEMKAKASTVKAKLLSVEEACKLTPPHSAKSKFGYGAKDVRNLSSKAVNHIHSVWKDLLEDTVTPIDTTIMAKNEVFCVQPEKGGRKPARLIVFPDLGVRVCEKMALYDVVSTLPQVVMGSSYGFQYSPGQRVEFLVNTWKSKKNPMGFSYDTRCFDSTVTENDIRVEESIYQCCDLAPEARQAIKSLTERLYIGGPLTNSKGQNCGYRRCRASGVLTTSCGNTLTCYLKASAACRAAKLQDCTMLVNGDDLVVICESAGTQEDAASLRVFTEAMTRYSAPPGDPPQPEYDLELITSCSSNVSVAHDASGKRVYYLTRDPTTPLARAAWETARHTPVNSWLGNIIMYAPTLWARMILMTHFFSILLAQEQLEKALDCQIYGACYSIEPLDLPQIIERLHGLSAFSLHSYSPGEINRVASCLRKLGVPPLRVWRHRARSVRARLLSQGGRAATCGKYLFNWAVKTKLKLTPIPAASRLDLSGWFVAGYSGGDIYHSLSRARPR
Experimental: Either two-fold serial dilutions (fractional inhibition assay) or a narrower range of dilutions spanning the IC50 of the inhibitor (tight binding assay) of the inhibitors were incubated with 20mM Tris-Cl pH 7.4, 2 mM MnCl2, 1 mM dithiothreitol, 1 mM ethylene diamine tetraacetic acid (EDTA), 60 to 125μM GTP and 20 to 50nM Δ21 NS5B (HCV Strain 1B (BK, Genbank accession number M58335, or H77, Genbank accession number AF011751)) for 15min at room temperature. The reaction was initiated by the addition of 20μM CTP, 20μM ATP, 1μM ^3H-UTP (10mCi/umol), 5nM template RNA and 0.1 U/μl RNase inhibitor (RNasin, Promega), and allowed to proceed for 2 to 4h at room temperature. Reaction volume was 50μl. The reaction was terminated by the addition of 1 volume of 4mM spermine in 10mM Tris-Cl pH 8.0, 1mM EDTA. After incubation for at least 15 min at room temperature, the precipitated RNA was captured by filtering through a GF/B filter (Millipore) in a 96 well format. The filter plate was washed three times with 200μl each of 2mM spermine, 10mM Tris-Cl pH 8.0, lmM EDTA, and 2 times with ethanol. After air-drying, 30μl of Microscint 20 scintillation cocktail (Packard) was added to each well, and the retained cpm were determined by scintillation counting. […] Retained cpm were plotted vs. inhibitor concentration and fit to equation 1 using non-linear regression (ref. 1) to obtain the IC50 values: Retained cpm=A[sqrt{(IC50+It−Et)^2+4*IC50*Et}−([…])]
Ref. Morrison, J. F. and S. R. Stone. 1985. Approaches to the study and analysis of the inhibition of enzymes by slow- and tight-binding inhibitors. Comments Mol. Cell. Biophys. 2: 347-368.
as §1

[4] = test system: genotype 1b-Con1 subgenomic replicon cell line; test: microbe, parasite or virus in culture; type: cell-based, HCV; settings: Hepatitis C virus, 72 h, read-out: EC50 1b

COc1c(-c2ccc3c(c2)CC[C@@]3(F)CNS(C)(=O)=O)cc(-n2ccc(=O)[nH]c2=O)cc1C(C)(C)C [IB-L0-2.20, (S)-N-((5-(3-tert-butyl-5-(2,4-dioxo-3,4-dihydropyrimidin-1(2H)-yl)-2-methoxyphenyl)-1-fluoro-2,3-dihydro-1H-inden-1-yl)methyl)methanesulfonamide]
EC50 [1]: 100 to 1000 nM
IC50 [2]: < 10 nM
IC50 [3]: 10 to 100 nM
EC50 [4]: 10 to 100 nM

COc1c(-c2ccc3nc(NS(C)(=O)=O)cnc3c2)cc(-n2ccc(=O)[nH]c2=O)cc1C(C)(C)C [IB-L0-2.26, N-(6-(3-tert-butyl-5-(2,4-dioxo-3,4-dihydropyrimidin-1(2H)-yl)-2-methoxyphenyl)quinoxalin-2-yl)methanesulfonamide]
EC50 [1]: > 1000 nM
IC50 [2]: 10 to 100 nM
IC50 [3]: 10 to 100 nM
EC50 [4]: 100 to 1000 nM

COc1c(-c2ccc3nc(N)sc3c2)cc(-n2ccc(=O)[nH]c2=O)cc1C(C)(C)C [IB-L0-2.27, 1-(3-(2-aminobenzo[d]thiazol-6-yl)-5-tert-butyl-4-methoxy-phenyl)pyrimidine-2,4(1H,3H)-dione]
EC50 [1]: 100 to 1000 nM
IC50 [2]: 10 to 100 nM
IC50 [3]: 10 to 100 nM
EC50 [4]: 10 to 100 nM

COc1c(-c2ccc3nc(NS(C)(=O)=O)sc3c2)cc(-n2ccc(=O)[nH]c2=O)cc1C(C)(C)C [IB-L0-2.28, N-(6-(3-tert-butyl-5-(2,4-dioxo-3,4-dihydropyrimidin-1(2H)-yl)-2-methoxyphenyl)benzo[d]thiazol-2-yl)methanesulfonamide]
EC50 [1]: > 1000 nM
IC50 [2]: 10 to 100 nM
IC50 [3]: 10 to 100 nM
EC50 [4]: 100 to 1000 nM

COc1c(-c2ccc3c(c2)CNC3=O)cc(-n2ccc(=O)[nH]c2=O)cc1C(C)(C)C [IB-L0-2.30, 1-(3-tert-butyl-4-methoxy-5-(1-oxoisoindolin-5-yl)phenyl)-pyrimidine-2,4(1H,3H)-dione]
EC50 [1]: 100 to 1000 nM
IC50 [2]: 10 to 100 nM
IC50 [3]: 10 to 100 nM
EC50 [4]: 10 to 100 nM

COc1c(-c2ccc3c(c2)CCN3S(C)(=O)=O)cc(-n2ccc(=O)[nH]c2=O)cc1C(C)(C)C [IB-L0-2.32, 1-(3-tert-butyl-4-methoxy-5-(1-(methylsulfonyl)indolin-5-yl)phenyl)pyrimidine-2,4(1H,3H)-dione]
EC50 [1]: 100 to 1000 nM
IC50 [2]: 10 to 100 nM
IC50 [3]: 10 to 100 nM
EC50 [4]: 10 to 100 nM

COc1c(-c2ccc3ncsc3c2)cc(-n2ccc(=O)[nH]c2=O)cc1C(C)(C)C [IB-L0-2.33, 1-(3-(benzo[d]thiazol-6-yl)-5-tert-butyl-4-methoxyphenyl)pyrimidine-2,4(1H,3H)-dione]
EC50 [1]: 100 to 1000 nM
IC50 [2]: 10 to 100 nM
IC50 [3]: 10 to 100 nM
EC50 [4]: 100 to 1000 nM

COc1c(-c2ccc3nc(Cl)sc3c2)cc(-n2ccc(=O)[nH]c2=O)cc1C(C)(C)C [IB-L0-2.38, 1-(3-tert-butyl-5-(2-chlorobenzo[d]thiazol-6-yl)-4-methoxyphenyl)pyrimidine-2,4(1H,3H)-dione]
EC50 [1]: > 1000 nM
IC50 [2]: 100 to 1000 nM
IC50 [3]: 10 to 100 nM
EC50 [4]: > 1000 nM

COc1c(-c2ccc3c(c2)CC=C3C(C)(C)NS(C)(=O)=O)cc(-n2ccc(=O)[nH]c2=O)cc1C(C)(C)C [IB-L0-2.41, N-(2-(6-(3-tert-butyl-5-(2,4-dioxo-3,4-dihydropyrimidin-1(2H)-yl)-2-methoxyphenyl)-1H-inden-3-yl)propan-2-yl)methanesulfonamide]
EC50 [1]: 100 to 1000 nM
IC50 [2]: 100 to 1000 nM
IC50 [3]: 100 to 1000 nM
EC50 [4]: 100 to 1000 nM

COc1c(-c2ccc3c(C)coc3c2)cc(-n2ccc(=O)[nH]c2=O)cc1C(C)(C)C [IB-L0-2.42, 1-(3-tert-butyl-4-methoxy-5-(3-methylbenzofuran-6-yl)phenyl)-pyrimidine-2,4(1H,3H)-dione]
EC50 [1]: 100 to 1000 nM
IC50 [2]: 100 to 1000 nM
IC50 [3]: 100 to 1000 nM
EC50 [4]: 100 to 1000 nM

COc1c(-c2ccc3c(c2)CCN(NS(C)(=O)=O)C3)cc(-n2ccc(=O)[nH]c2=O)cc1C(C)(C)C [IB-L0-2.43, N-(6-(3-tert-butyl-5-(2,4-dioxo-3,4-dihydropyrimidin-1(2H)-yl)-2-methoxyphenyl)-3,4-dihydroisoquinolin-2(1H)-yl)methanesulfonamide]
EC50 [1]: > 1000 nM
IC50 [2]: 100 to 1000 nM
IC50 [3]: 100 to 1000 nM
EC50 [4]: 100 to 1000 nM

COc1c(-c2ccc3c(CNS(C)(=O)=O)noc3c2)cc(-n2ccc(=O)[nH]c2=O)cc1C(C)(C)C [IB-L0-2.45]
EC50 [1]: > 1000 nM
IC50 [2]: 100 to 1000 nM
IC50 [3]: 100 to 1000 nM
EC50 [4]: 100 to 1000 nM

COc1c(-c2ccc3c(c2)/C(=N/NS(C)(=O)=O)CC3)cc(-n2ccc(=O)[nH]c2=O)cc1-c1cccs1 [IB-L0-2.51, (E)-N′-(6-(5-(2,4-dioxo-3,4-dihydropyrimidin-1(2H)-yl)-2-methoxy-3-(thiophen-2-yl)phenyl)-2,3-dihydro-1H-inden-1-ylidene)methanesulfonohydrazide]
EC50 [1]: 10 to 100 nM
IC50 [2]: < 10 nM
IC50 [3]: 10 to 100 nM
EC50 [4]: < 10 nM

CCC(C)(C)c1cc(-n2ccc(=O)[nH]c2=O)cc(-c2ccc3cc(NS(C)(=O)=O)ccc3c2)c1OC [IB-L0-2.52, N-(6-(5-(2,4-dioxo-3,4-dihydropyrimidin-1(2H)-yl)-2-methoxy-3-tert-pentylphenyl)naphthalen-2-yl)methanesulfonamide]
EC50 [1]: 10 to 100 nM
IC50 [2]: < 10 nM
IC50 [3]: 10 to 100 nM
EC50 [4]: < 10 nM

COc1c(-c2ccsc2)cc(-n2ccc(=O)[nH]c2=O)cc1-c1ccc2cc(NS(C)(=O)=O)ccc2c1 [IB-L0-2.53, N-(6-(5-(2,4-dioxo-3,4-dihydropyrimidin-1(2H)-yl)-2-methoxy-3-(thiophen-3-yl)phenyl)naphthalen-2-yl)methanesulfonamide]
EC50 [1]: 10 to 100 nM
IC50 [2]: < 10 nM
IC50 [3]: 10 to 100 nM
EC50 [4]: 10 to 100 nM

COc1c(-c2ccc3c(c2)/C(=N/NS(C)(=O)=O)CC3)cc(-n2ccc(=O)[nH]c2=O)cc1-c1ccco1 [IB-L0-2.55, (E)-N′-(6-(5-(2,4-dioxo-3,4-dihydropyrimidin-1(2H)-yl)-3-(furan-2-yl)-2-methoxyphenyl)-2,3-dihydro-1H-inden-1-ylidene)methanesulfonohydrazide]
EC50 [1]: 10 to 100 nM
IC50 [2]: < 10 nM
IC50 [3]: 10 to 100 nM
EC50 [4]: < 10 nM

COc1c(-c2ccc3cc(NS(C)(=O)=O)ccc3c2)cc(-n2ccc(=O)[nH]c2=O)cc1C(F)(F)F [IB-L0-2.56, N-(6-(5-(2,4-dioxo-3,4-dihydropyrimidin-1(2H)-yl)-2-methoxy-3-(trifluoromethyl)phenyl)naphthalen-2-yl)methanesulfonamide]
EC50 [1]: 100 to 1000 nM
IC50 [2]: < 10 nM
IC50 [3]: 10 to 100 nM
EC50 [4]: < 10 nM

COc1c(I)cc(-n2ccc(=O)[nH]c2=O)cc1-c1ccc2cc(NS(C)(=O)=O)ccc2c1 [IB-L0-2.57, N-(6-(5-(2,4-dioxo-3,4-dihydropyrimidin-1(2H)-yl)-3-iodo-2-methoxyphenyl)naphthalen-2-yl)methanesulfonamide]
EC50 [1]: 100 to 1000 nM
IC50 [2]: < 10 nM
IC50 [3]: 10 to 100 nM
EC50 [4]: 10 to 100 nM

COc1c(-c2ccc3cc(NS(C)(=O)=O)ccc3c2)cc(-n2ccc(=O)[nH]c2=O)cc1-c1ccco1 [IB-L0-2.59, N-(6-(5-(2,4-dioxo-3,4-dihydropyrimidin-1(2H)-yl)-3-(furan-2-yl)-2-methoxyphenyl)naphthalen-2-yl)methanesulfonamide]
EC50 [1]: 100 to 1000 nM
IC50 [2]: < 10 nM
IC50 [3]: 10 to 100 nM
EC50 [4]: 10 to 100 nM

COc1c(-c2ccc3cc(NS(C)(=O)=O)ccc3c2)cc(-n2ccc(=O)[nH]c2=O)cc1-c1cccs1 [IB-L0-2.61, N-(6-(5-(2,4-dioxo-3,4-dihydropyrimidin-1(2H)-yl)-2-methoxy-3-(thiophen-2-yl)phenyl)naphthalen-2-yl)methanesulfonamide]
EC50 [1]: 100 to 1000 nM
IC50 [2]: < 10 nM
IC50 [3]: 10 to 100 nM
EC50 [4]: 10 to 100 nM
